According to PMC13286052 (Antimicrobial Agents and Chemotherapy, 2026):
Entries after “also recorded” stand apart in the source; their conditions may differ.

Key:
in vitro = settings: human
HCMV = settings: cited from earlier work
pUL89C = settings: cited from earlier work
VACV E3 = format: cell-based, vaccinia virus; settings: 10 µM
VACV gene expression = format: cell-based; settings: 10 µM
[1] = microsomes; cited from earlier work
MPXV resolvase (Mpr) = format: biochemical, monkeypox virus; settings: 50 µM
vaccinia virus (VACV) = experiment: microbe, parasite or virus in culture; format: cell-based; settings: for EC50: Orthopoxvirus vaccinia
in vivo = settings: male, CD-1, mouse
[2] = male, CD-1, mouse, in vivo
VACV [3] = format: cell-based, vaccinia virus
VACV [4] = format: cell-based, vaccinia virus; settings: 10 µM
VACV [5] = format: cell-based, vaccinia virus; settings: 48 h
VACV DNA replication = format: cell-based, vaccinia virus; settings: 10 µM
VACV [6] = settings: cited from earlier work
poxvirus resolvases = settings: cited from earlier work

O=C(NCCc1ccc(F)cc1F)c1cn(Cc2ccc(F)cc2)cc(O)c1=O [ZW-2038]
CC50 (in vitro): > 500000 nM | inhibition of HCMV (HCMV): potently inhibited | inhibition of pUL89C (pUL89C): did not inhibit | E3 levels (VACV E3): did not reduce | luciferase activity from the early promoter (vEGluc) (VACV gene expression): did not affect | reporter activity from intermediate promoter (vIGluc) (VACV gene expression): significantly diminished | reporter activity from late promoter (vLGluc) (VACV gene expression): significantly diminished | microsomal stability [1]: good | Mpr inhibition (MPXV resolvase (Mpr)): no Mpr inhibition; also recorded: did not inhibit | reduction of Gaussia luciferase activity (vaccinia virus (VACV); 10 µM): more than 99% | EC50 (vaccinia virus (VACV)): 876 nM | cell viability compared to vehicle (HFFs): no significant difference | bioavailability (in vivo; Bioavailability (F, %)): 4% | AUC(0-t) (in vivo; iv, 2 mg/kg): 238 ± 54 ng·h/mL | Cmax (in vivo; iv, 2 mg/kg): 528 ng/mL | MRT last (in vivo; iv, 2 mg/kg): 0.9 ± 0.4 h | Tmax (in vivo; iv, 2 mg/kg): 0.08 h | clearance (in vivo; iv, 2 mg/kg): 150 mL/min/kg | half-life (in vivo; iv, 2 mg/kg): 5 ± 2 h | AUC(0-t) (in vivo; po, 20 mg/kg): 98 ± 15 ng·h/mL | Cmax (in vivo; po, 20 mg/kg): 38 ng/mL | MRT last (in vivo; po, 20 mg/kg): 11 ± 2 h | Tmax (in vivo; po, 20 mg/kg): 0.2 ± 0.2 h | half-life (in vivo; po, 20 mg/kg): 104 ± 159 h | Bioavailability (F, %) [2]: 4.1% | oral Cmax lower than IV Cmax [2]: 14 fold | CL ([2]; po, 20 mg/kg): 67 ± 50 mL/min/kg | V ([2]; po, 20 mg/kg): 117 ± 46 L/kg | viral replication (luciferase activity) in human jejunum enteroids (VACV [3]): significantly suppressed | VACV titers in ex vivo mouse lung tissue (VACV [4]): consistently reduced | late viral gene expression in rhesus colon enteroids (VACV [5]): markedly reduced | viral DNA accumulation (VACV DNA replication): marked reduction

O=C(NN1C(=O)[C@@H]2[C@@H]3C=C[C@@H]([C@H]4C[C@@H]34)[C@@H]2C1=O)c1ccc(C(F)(F)F)cc1 [Tecovirimat, reference compound]
EC50 (vaccinia virus (VACV)): 25 nM

Nc1ccn([C@@H]2O[C@H](CO)[C@@H](O)[C@@H]2O)c(=O)n1 [AraC, Cytarabine, reference compound]
late viral gene expression in rhesus colon enteroids (VACV [5]): markedly reduced

Cc1cc(C2CCCCC2)n(O)c(=O)c1 [Ciclopirox]
inhibition of VACV replication (VACV [6]): efficient inhibitors of VACV replication

O=c1c(-c2ccccc2)c(O)c2cc(-c3cccc(-c4ccccc4)c3)cnc2n1O [Compound 1, reference compound]
inhibition of poxvirus resolvases (poxvirus resolvases): potently inhibits | Mpr inhibition (MPXV resolvase (Mpr)): nearly complete inhibition

O=C(NNc1nc2cc(F)ccc2n2cccc12)c1cnccn1 [SC144]
inhibition of VACV replication (VACV [6]): efficient inhibitors of VACV replication
